The values that follow come from US20070265240A1, “Sequence Selective Pyrrole and Imidazole Polyamide Metallocomplexes” (priority 2003, published 2007).

Test [1] deals with relaxed and negatively supercoiled pUC19 DNA. The test is described as follows: DNA unwinding experiment by gel electrophoresis. Format: binding. The settings on record: pUC19 plasmid incubated 1.5 hr at 37° C., rb 0-0.074. As for the experimental part: Lanes: 0 Control rb=0; 1, rb=0.008; 2, rb=0.0.016; 3, rb=0.025; 4, rb=0.033; 5, rb=0.041; 6, rb=0.049; 7, rb=0.057; 8, rb=0.066; 9, rb=0.074.
The unwinding angle was determined to be 13° for this experiment, which is the same as that reported for cisplatin (13°). The plasmid was incubated with Im/Py/Py-Pt for 1.5 hr at 37° C. Lanes: 0 Control rb=0; 1, rb=0.008; 2, rb=0.0.016; 3, rb=0.025; 4, rb=0.033; 5, rb=0.041; 6, rb=0.049; 7, rb=0.057; 8, rb=0.066; 9, rb=0.074. The top bands correspond to the form of nicked plasmid and the bottom bands to the closed, negatively supercoiled plasmid shown in FIG. 4.

For test [2] the test system is unchanged. The following applies: value reported for cisplatin; cited from earlier work.
Test [3] relates to d(CATTGAGAGAC)2 (double mismatch site). In words: CD titration, affinity constant for double-mismatch duplex. Format: binding. The following applies: derived from CD titrations; 5 μM duplex DNA, 10 mM sodium phosphate pH 7.0, 40 mM NaCl, room temperature. The protocol:
(§1) The changes are generally monitored until saturation is reached. The equilibrium constant can be determined using standard techniques, such as Scatchard plot, the McGhee Von Hippel model, or least squares, for analysis.
(§2) All CD measurements were recorded on a Jasco J-810 CD spectropolarimeter at room temperature and cell length of 1 cm. Titrations were performed by incrementally adding aliquots of Im/Py/Py-Pt to a 2600 μL solution of 5 μM duplex DNA. After each addition, an average CD spectrum from 240 to 400 nm (20 accumulations) was recorded. DNA concentration was 5 μM. The concentration of Im/Py/Py-Pt ranged from 0 to 10 μM. Solution conditions were 10 mM sodium phosphate (pH 7.0) and 40 mM NaCl.

In test [4] the test system is d(CATTGACAGAC)2 (single mismatch site). In words: CD titration, affinity constant for single-mismatch duplex. In kind it is binding. The following applies: derived from CD titrations; 5 μM duplex DNA, 10 mM sodium phosphate pH 7.0, 40 mM NaCl, room temperature. As for the experimental part: as §1, §2
The test system of test [5] is d(CATTGTCAGAC)2 (target site). The test is described as follows: CD titration, affinity constant for target-site duplex. The settings on record: derived from CD titrations; 5 μM duplex DNA, 10 mM sodium phosphate pH 7.0, 40 mM NaCl, room temperature. In kind it is binding. As for the experimental part: as §1, §2
For test [6], the system named is recombinant pSP64 derivative. In words: In vitro transcription assay (inhibition of RNA synthesis). Format: biochemical. The following applies: increasing molar concentration; after 12 hour platination in the dark at 4° C.; 40 mM Tris-HCl pH 7.9. As for the experimental part:
FIG. 5—In vitro Transcription Assay “trans-Im/Py/Py-[CONH(CH2)2—NH2)Pt(NH3)2Cl” (“DJ1953-2”) The Inhibition of RNA synthesis by DJ1953-2 was assessed using a recombinant pSP64 derivative. Incubations were carried out in 40 mM Tris-HCl (pH 7.9), 6 mM MgCl2, 2 mM spermidine, 10 mM NaCl. Lane (1) 100-500 bases RNA marker; (2) to (8) increasing molar concentration of DJ1953-2. […] Experiments were conducted after 12 hour platination reactions (in the dark at 4° C.).
The Inhibition of RNA synthesis by DJ1953-2 was assessed using a recombinant pSP64 derivative. Incubations were carried out in 40 mM Tris-HCl (pH 7.9), 6 mM MgCl2, 2 mM spermidine, 10 mM NaCl. Lane (1) 100-500 bases RNA marker; Lanes (2) to (8) increasing molar concentration of DJ1953-2. […] Experiments were conducted after 12 hour platination reactions (in the dark at 4° C.).

Consider trans-Im/Py/Py-Pt(Cl)(NH3)2, for which, in test [1], the unwinding angle worked out at 13 °.

`N.N.[Cl][Pt][Cl]` [cisplatin, cis-diamminedichloroplatinum(II)]: the “unwinding angle (reported)” value in test [2] is 13 °.

Regarding `Cn1cc(NC(=O)c2cc(NC(=O)c3nccn3C)cn2C)cc1C(=O)NCCCCCC[NH][Pt]([NH2])([NH2])[Cl]` [DJ-1953-6, trans-Im/Py/Py-[CONH(CH2)6—NH2)Pt(NH3)2Cl], the “apparent first-order affinity constant K for binding site d(CATTGAGAGAC)2” value in test [3] is reported as 1.3 × 10^6 (0.1) M^−1. The “apparent first-order affinity constant K for binding site d(CATTGACAGAC)2” value in test [4] is given as 4.4 × 10^5 (0.2) M^−1. Besides, the “apparent first-order affinity constant K for binding site d(CATTGTCAGAC)2” value in test [5] is 2.4 × 10^6 (0.1) M^−1.

For the molecule “tans-Im/Py/Py-[CONH(CH2)2—NH2)Pt(NH3)2Cl [DJ-1953-2]”, in test [3], the “apparent first-order affinity constant K for binding site d(CATTGAGAGAC)2” value is given as 3.0 × 10^5 (0.1) M^−1. Moreover, the “apparent first-order affinity constant K for binding site d(CATTGACAGAC)2” value in test [4] is on record as 5.6 × 10^5 (0.2) M^−1. Further, the “apparent first-order affinity constant K for binding site d(CATTGTCAGAC)2” value in test [5] is listed as 1.2 × 10^6 (0.1) M^−1. Further, the “inhibition of RNA synthesis (full-length transcript, 335 bases)” value in test [6] is recorded as “inhibition of the full-length transcript (FLT) can be seen”.
